Assay results taken from US20230416232A1, “PYRIMIDINE COMPOUNDS, COMPOSITIONS, AND MEDICINAL APPLICATIONS THEREOF” (Blueprint Medicines Corporation, priority 2020, published 2023).
Read-outs that look alike come from different tables or passages of the source.

Assays:
Assay type in all cases: cell-based
[1] = target: EGFR (A767_dupASV) expressing Ba/F3 stable cell line (Homo sapiens, UniProt P00533, DUP767-769, cells depend on it); assay: Cellular proliferation (Alamar Blue) assay, EGFR (A767_dupASV) Ba/F3
EGFR (A767_dupASV) expressing Ba/F3 stable cell line, sequence (P00533 with tags, fused parts or gaps DUP767-769): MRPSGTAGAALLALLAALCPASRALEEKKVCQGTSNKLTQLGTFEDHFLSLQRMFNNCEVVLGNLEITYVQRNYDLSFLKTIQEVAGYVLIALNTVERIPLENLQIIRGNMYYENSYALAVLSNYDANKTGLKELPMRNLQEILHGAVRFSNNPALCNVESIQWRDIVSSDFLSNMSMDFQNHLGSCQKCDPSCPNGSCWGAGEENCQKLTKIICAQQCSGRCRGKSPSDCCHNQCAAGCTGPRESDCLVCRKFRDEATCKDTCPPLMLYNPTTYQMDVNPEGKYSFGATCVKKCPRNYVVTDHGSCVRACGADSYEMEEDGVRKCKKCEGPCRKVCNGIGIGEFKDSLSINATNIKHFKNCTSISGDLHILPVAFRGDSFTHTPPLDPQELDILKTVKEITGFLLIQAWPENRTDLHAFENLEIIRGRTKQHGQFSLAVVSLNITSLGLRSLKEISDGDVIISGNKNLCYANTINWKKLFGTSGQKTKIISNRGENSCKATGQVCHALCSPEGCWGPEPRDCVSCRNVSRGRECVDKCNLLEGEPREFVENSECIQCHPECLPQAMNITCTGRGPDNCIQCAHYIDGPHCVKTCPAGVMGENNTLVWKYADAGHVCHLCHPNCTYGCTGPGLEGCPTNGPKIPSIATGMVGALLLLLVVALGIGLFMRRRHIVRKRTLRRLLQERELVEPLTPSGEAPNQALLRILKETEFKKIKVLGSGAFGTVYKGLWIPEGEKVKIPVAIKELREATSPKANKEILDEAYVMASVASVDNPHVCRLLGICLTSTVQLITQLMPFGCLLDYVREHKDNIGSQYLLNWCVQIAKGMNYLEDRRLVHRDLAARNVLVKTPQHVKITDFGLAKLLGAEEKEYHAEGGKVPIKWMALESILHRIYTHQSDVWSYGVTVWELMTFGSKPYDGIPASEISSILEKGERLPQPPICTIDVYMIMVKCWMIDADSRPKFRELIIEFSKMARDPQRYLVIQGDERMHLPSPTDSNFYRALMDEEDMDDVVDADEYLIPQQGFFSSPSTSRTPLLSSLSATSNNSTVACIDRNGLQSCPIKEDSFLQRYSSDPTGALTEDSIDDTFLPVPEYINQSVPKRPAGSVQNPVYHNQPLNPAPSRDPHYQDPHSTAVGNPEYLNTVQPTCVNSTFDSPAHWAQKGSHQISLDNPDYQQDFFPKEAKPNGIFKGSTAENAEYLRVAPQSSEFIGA
Summary of the method: (§1)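 Compound treatment lasted 72 h at 37 °C across a final 10-0.0005 μM range in 3-fold steps; cell growth was measured with Alamar Blue (3 h). Ba/F3 seeded at 15,000 and A431 at 5000 cells/well.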

[2] = tested on: A431 cells; assay: Cellular proliferation (Alamar Blue) assay, A431 cells; conditions: Homo sapiens, A-431, 72 h, read-out: A431 IC50
Summary of the method: as §1

[3] = target: HER2 (A775_G776insYVMA) expressing Ba/F3 stable cell line (Homo sapiens, UniProt P04626, DUP772-775, cells depend on it); assay: Cellular proliferation (Alamar Blue) assay, HER2 (A775_G776insYVMA) Ba/F3; conditions: read-out: YVMA IC50
HER2 (A775_G776insYVMA) expressing Ba/F3 stable cell line, sequence (P04626 with tags, fused parts or gaps DUP772-775): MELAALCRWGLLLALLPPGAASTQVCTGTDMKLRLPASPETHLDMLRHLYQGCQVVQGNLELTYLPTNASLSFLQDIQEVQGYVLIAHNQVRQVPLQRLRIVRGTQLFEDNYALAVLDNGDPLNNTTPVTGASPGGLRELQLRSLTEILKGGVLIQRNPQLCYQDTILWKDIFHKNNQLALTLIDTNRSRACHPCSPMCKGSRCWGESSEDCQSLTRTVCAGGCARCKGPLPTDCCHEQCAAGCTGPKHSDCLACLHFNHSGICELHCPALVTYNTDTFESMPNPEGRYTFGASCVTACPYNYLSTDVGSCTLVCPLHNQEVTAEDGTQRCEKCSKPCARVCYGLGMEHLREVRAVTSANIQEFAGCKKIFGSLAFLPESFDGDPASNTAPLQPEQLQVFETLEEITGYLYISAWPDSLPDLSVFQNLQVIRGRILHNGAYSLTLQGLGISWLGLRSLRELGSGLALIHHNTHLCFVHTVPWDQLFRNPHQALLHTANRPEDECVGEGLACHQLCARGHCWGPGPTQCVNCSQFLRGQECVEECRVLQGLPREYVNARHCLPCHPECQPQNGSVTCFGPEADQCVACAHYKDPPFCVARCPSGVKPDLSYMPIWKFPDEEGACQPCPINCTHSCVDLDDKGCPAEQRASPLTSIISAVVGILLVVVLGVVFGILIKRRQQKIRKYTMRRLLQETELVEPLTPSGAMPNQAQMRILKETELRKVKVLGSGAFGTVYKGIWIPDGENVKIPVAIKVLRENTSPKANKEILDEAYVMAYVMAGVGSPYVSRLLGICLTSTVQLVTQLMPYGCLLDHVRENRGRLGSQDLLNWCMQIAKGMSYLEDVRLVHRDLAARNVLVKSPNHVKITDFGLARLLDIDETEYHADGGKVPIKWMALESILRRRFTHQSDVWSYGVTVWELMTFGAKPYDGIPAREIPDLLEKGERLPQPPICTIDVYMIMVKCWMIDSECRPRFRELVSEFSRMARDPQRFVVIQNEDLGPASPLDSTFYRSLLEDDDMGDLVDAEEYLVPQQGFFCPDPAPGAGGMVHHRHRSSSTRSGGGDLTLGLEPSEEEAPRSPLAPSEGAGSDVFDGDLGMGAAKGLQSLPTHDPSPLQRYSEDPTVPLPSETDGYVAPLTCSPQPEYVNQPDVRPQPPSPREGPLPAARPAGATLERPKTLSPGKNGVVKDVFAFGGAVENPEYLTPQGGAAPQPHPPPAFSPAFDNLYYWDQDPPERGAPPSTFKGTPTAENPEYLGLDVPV
Summary of the method: as §1

[4] = target: EGFR(D770_N771insSVD) expressing Ba/F3 stable cell line (Homo sapiens, UniProt P00533, DUP768-770, cells depend on it); assay: Cellular proliferation (Alamar Blue) assay, EGFR(D770_N771insSVD) Ba/F3
EGFR(D770_N771insSVD) expressing Ba/F3 stable cell line, sequence (P00533 with tags, fused parts or gaps DUP768-770): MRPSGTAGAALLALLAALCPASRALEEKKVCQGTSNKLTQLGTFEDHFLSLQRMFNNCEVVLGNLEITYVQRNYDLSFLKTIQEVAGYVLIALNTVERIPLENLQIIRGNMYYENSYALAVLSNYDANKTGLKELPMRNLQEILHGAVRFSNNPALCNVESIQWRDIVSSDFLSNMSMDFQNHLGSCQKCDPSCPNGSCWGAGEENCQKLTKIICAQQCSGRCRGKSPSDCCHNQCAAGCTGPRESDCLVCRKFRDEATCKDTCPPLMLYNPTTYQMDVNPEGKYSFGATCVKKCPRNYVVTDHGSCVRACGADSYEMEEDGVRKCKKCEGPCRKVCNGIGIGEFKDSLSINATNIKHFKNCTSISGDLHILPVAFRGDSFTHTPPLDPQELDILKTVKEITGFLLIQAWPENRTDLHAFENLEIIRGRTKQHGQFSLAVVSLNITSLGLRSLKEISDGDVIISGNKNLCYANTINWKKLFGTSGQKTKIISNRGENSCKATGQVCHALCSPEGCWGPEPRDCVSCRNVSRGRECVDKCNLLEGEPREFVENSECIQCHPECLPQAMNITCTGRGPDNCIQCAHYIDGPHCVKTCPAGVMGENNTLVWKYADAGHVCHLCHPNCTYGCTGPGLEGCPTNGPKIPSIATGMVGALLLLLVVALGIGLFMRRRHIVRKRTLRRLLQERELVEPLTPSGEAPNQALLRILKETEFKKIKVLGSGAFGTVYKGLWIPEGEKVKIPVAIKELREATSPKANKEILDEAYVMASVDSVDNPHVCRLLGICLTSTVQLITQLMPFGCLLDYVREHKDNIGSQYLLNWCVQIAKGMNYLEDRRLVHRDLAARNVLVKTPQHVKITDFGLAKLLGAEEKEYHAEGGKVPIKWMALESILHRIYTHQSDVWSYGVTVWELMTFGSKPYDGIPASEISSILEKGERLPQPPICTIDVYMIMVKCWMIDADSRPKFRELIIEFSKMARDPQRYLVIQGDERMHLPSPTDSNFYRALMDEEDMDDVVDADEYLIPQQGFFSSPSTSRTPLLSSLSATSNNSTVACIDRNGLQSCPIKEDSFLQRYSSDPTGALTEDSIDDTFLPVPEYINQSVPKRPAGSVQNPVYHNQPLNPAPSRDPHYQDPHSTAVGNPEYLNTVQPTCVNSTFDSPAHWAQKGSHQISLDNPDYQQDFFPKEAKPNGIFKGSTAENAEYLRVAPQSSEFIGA
Summary of the method: as §1

[5] = target: EGFR (H773insNPH) expressing Ba/F3 stable cell line (Homo sapiens, UniProt P00533, DUP771-773, cells depend on it); assay: Cellular proliferation (Alamar Blue) assay, EGFR (H773insNPH) Ba/F3
EGFR (H773insNPH) expressing Ba/F3 stable cell line, sequence (P00533 with tags, fused parts or gaps DUP771-773): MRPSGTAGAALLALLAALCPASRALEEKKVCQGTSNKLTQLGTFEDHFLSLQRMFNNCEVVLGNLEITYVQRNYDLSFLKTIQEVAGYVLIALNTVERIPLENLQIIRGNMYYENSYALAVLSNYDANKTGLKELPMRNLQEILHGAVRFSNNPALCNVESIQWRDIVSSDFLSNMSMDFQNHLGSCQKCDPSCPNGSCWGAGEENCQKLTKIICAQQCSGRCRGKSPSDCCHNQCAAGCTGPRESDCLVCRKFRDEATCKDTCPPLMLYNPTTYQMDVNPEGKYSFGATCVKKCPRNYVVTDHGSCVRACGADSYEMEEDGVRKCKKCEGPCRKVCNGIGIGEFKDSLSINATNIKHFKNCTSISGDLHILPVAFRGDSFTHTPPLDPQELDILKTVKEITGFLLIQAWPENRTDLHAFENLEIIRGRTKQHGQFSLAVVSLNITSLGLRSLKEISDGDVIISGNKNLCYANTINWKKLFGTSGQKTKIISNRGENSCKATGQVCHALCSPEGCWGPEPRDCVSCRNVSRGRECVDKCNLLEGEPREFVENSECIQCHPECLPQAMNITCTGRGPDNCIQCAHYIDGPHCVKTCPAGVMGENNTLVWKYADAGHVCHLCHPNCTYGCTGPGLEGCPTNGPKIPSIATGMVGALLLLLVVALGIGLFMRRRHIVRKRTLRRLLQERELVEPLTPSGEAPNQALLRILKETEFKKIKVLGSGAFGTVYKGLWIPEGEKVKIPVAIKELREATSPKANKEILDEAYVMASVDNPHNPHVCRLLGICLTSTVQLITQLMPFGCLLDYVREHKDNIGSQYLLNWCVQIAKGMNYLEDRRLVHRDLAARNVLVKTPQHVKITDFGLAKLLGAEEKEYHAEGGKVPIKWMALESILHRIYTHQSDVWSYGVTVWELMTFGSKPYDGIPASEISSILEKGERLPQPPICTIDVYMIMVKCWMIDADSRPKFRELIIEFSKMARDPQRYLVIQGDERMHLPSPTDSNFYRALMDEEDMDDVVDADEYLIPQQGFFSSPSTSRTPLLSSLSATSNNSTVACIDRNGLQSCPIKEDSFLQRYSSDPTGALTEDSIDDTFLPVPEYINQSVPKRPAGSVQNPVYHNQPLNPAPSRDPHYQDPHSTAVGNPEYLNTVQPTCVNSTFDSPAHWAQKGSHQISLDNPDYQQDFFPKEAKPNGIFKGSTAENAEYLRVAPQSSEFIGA
Method: Cell line details: • 1. EGFR(D770_N771insSVD) expressing Ba/F3 stable cell line • 2. EGFR (A767_dupASV) expressing Ba/F3 stable cell line • 3. A431 cells • 4. EGFR (H773insNPH) expressing Ba/F3 stable cell line • 5. HER2 (A775_G776insYVMA) expressing Ba/F3 stable cell line
• 1. Seed cells at 5000 for A431 and 15,000 cells for Ba/F3 in 100 μL/well in complete media (for A431: DMEM with 10% FBS and for Ba/F3 cells: RPMI with 10% FBS) in 96-well tissue culture plate. Leave outer wells without cells for background measurements. Incubate at 37 degree Celsius in 5% CO2 humidified incubator for 16-18 hours. • 2. Add 0.025 ml of 5X concentration compound dilution or DMSO control. Final compound concentration range is 10-0.0005 μM prepared in 3-fold serial dilutions. Incubate for 72 hr at 37 degree Celsius in 5% CO2 humidified incubator. • 3. Add 0.0125 ml Alamar Blue™ reagent to each well with multi-channel pipette and tap gently on each side of the plate to mix. Incubate for 3 hours at 37 degree Celsius in 5% CO2 humidified incubator. • 4. […] Data analysis was performed using XLfit 5.5.0.5.

[6] = HER2 (A775_G776insYVMA) Ba/F3 cells, 72 hr, Alamar Blue

## C=CC(=O)Nc1ccc(F)c(Nc2nc(Nc3cnn(C)c3)ncc2-c2ccc(C)c(F)c2)c1 [Compound 13, N-(4-fluoro-3-((5-(3-fluoro-4-methylphenyl)-2-((1-methyl-1H-pyrazol-4-yl)amino)pyrimidin-4-yl)amino)phenyl)acrylamide]
[1]; 72 hr, read-out: A767 IC50
  GI50: 42 nM
[2]; A431 cells, 72 hr, Alamar Blue
  IC50: 147 nM
[3]; [6]
  GI50: 114 nM
[4]; 72 hr, read-out: D770 IC50
  GI50: 28 nM
[5]; 72 hr, read-out: NPH IC50
  GI50: 79 nM

## C=CC(=O)Nc1ccc(F)c(Nc2nc(Nc3cnn(C)c3)ncc2-c2ccc(C(F)(F)F)c(F)c2)c1 [Compound 35, N-(4-fluoro-3-((5-(3-fluoro-4-(trifluoromethyl)phenyl)-2-((1-methyl-1H-pyrazol-4-yl)amino)pyrimidin-4-yl)amino)phenyl)acrylamide]
[1]; 72 hr, read-out: A767 IC50
  GI50: 99 nM
[2]; A431 cells, 72 hr, Alamar Blue
  IC50: 45 nM
[3]; [6]
  GI50: 99 nM
[4]; 72 hr, read-out: D770 IC50
  GI50: 35 nM
[5]; 72 hr, read-out: NPH IC50
  GI50: 84 nM

## C=CC(=O)Nc1cccc(Nc2nc(Nc3cnn(C)c3)ncc2-c2ccc(F)c(F)c2)c1 [Compound 67, N-(3-((5-(3,4-difluorophenyl)-2-((1-methyl-1H-pyrazol-4-yl)amino)pyrimidin-4-yl)amino)phenyl)acrylamide]
[1]; 72 hr, read-out: A767 IC50
  GI50: 41 nM
[2]; A431 cells, 72 hr, Alamar Blue
  IC50: 213 nM
[3]; [6]
  GI50: 60 nM
[4]; 72 hr, read-out: D770 IC50
  GI50: 36 nM
[5]; 72 hr, read-out: NPH IC50
  GI50: 100 nM

## C=CC(=O)Nc1ccc(F)c(Nc2nc(Nc3cnn(C)c3)ncc2-c2ccc(N3CCOCC3)c(F)c2)c1 [Compound 76, N-[4-fluoro-3-({5-[3-fluoro-4-(morpholin-4-yl)phenyl]-2-[(1-methyl-1H-pyrazol-4-yl)amino]pyrimidin-4-yl}amino)phenyl]prop-2-enamide]
[1]; 72 hr, read-out: A767 IC50
  GI50: 72 nM
[2]; A431 cells, 72 hr, Alamar Blue
  IC50: 1260 nM
[3]; [6]
  GI50: 240 nM
[4]; 72 hr, read-out: D770 IC50
  GI50: 220 nM
[5]; 72 hr, read-out: NPH IC50
  GI50: 236 nM

## C=CC(=O)Nc1ccc(F)c(Nc2nc(Nc3cnn(CCN(C)C)c3)ncc2-c2ccc(F)c(Cl)c2)c1 [Compound 57, N-(3-((5-(3-chloro-4-fluorophenyl)-2-((1-(2-(dimethylamino)ethyl)-1H-pyrazol-4-yl)amino)pyrimidin-4-yl)amino)-4-fluorophenyl)acrylamide]
[1]; read-out: A767 IC50, 72 hr
  GI50: 207 nM
[2]
  IC50: 699 nM
[3]; her2 (a775_g776insyvma) expressing ba/f3 stable cell line
  GI50: 112 nM
[4]; read-out: D770 IC50, 72 hr
  GI50: 111 nM
[5]; read-out: NPH IC50, 72 hr
  GI50: 62 nM

## C=CC(=O)Nc1ccc(F)c(Nc2nc(Nc3cnn(C)c3)ncc2-c2cnc(Cl)c(F)c2)c1 [Compound 45, N-(3-((5-(6-chloro-5-fluoropyridin-3-yl)-2-((1-methyl-1H-pyrazol-4-yl)amino)pyrimidin-4-yl)amino)-4-fluorophenyl)acrylamide]
[1]; 72 hr, read-out: A767 IC50
  GI50: 10 nM
[2]; A431 cells, 72 hr, Alamar Blue
  IC50: 35 nM
[3]; [6]
  GI50: 16 nM
[4]; 72 hr, read-out: D770 IC50
  GI50: 7 nM
[5]; 72 hr, read-out: NPH IC50
  GI50: 25 nM

## C=CC(=O)Nc1ccc(F)c(Nc2nc(Nc3cnn(C)c3)ncc2-c2ccc(N(C)C)c(F)c2)c1 [Compound 28, N-(3-((5-(4-(dimethylamino)-3-fluorophenyl)-2-((1-methyl-1H-pyrazol-4-yl)amino)pyrimidin-4-yl)amino)-4-fluorophenyl)acrylamide]
[1]; 72 hr, read-out: A767 IC50
  GI50: 27 nM
[2]; A431 cells, 72 hr, Alamar Blue
  IC50: 193 nM
[3]; [6]
  GI50: 271 nM
[4]; 72 hr, read-out: D770 IC50
  GI50: 29 nM
[5]; 72 hr, read-out: NPH IC50
  GI50: 47 nM

## C=CC(=O)Nc1ccc(F)c(Nc2nc(Nc3cnn(C)c3)ncc2-c2ccc(C(F)(F)F)cc2F)c1 [Compound 21, N-(4-fluoro-3-((5-(2-fluoro-4-(trifluoromethyl)phenyl)-2-((1-methyl-1H-pyrazol-4-yl)amino)pyrimidin-4-yl)amino)phenyl)acrylamide]
[1]; 72 hr, read-out: A767 IC50
  GI50: 181 nM
[2]; A431 cells, 72 hr, Alamar Blue
  IC50: > 10000 nM
[3]; [6]
  GI50: 1030 nM
[4]; 72 hr, read-out: D770 IC50
  GI50: 107 nM
[5]; 72 hr, read-out: NPH IC50
  GI50: 261 nM

## C=CC(=O)Nc1ccc(F)c(Nc2nc(Nc3cnn(C)c3)ncc2-c2cnc(F)c(C(F)(F)F)c2)c1 [Compound 47, N-(4-fluoro-3-((5-(6-fluoro-5-(trifluoromethyl)pyridin-3-yl)-2-((1-methyl-1H-pyrazol-4-yl)amino)pyrimidin-4-yl)amino)phenyl)acrylamide]
[1]; 72 hr, read-out: A767 IC50
  GI50: 34 nM
[2]; A431 cells, 72 hr, Alamar Blue
  IC50: 46 nM
[3]; [6]
  GI50: 25 nM
[4]; 72 hr, read-out: D770 IC50
  GI50: 21 nM
[5]; 72 hr, read-out: NPH IC50
  GI50: 20 nM

## C=CC(=O)Nc1ccc(F)c(Nc2nc(Nc3cnn(C)c3)ncc2-c2ccc(Cl)c(F)c2)c1 [Compound 33, N-(3-((5-(4-chloro-3-fluorophenyl)-2-((1-methyl-1H-pyrazol-4-yl)amino)pyrimidin-4-yl)amino)-4-fluorophenyl)acrylamide]
[1]; 72 hr, read-out: A767 IC50
  GI50: 21 nM
[2]; A431 cells, 72 hr, Alamar Blue
  IC50: 35 nM
[3]; [6]
  GI50: 73 nM
[4]; 72 hr, read-out: D770 IC50
  GI50: 20 nM
[5]; 72 hr, read-out: NPH IC50
  GI50: 52 nM
